Experimental data taken from US20170226145A1, “METHODS OF EXTRACTION AND PURIFICATION FROM STEVIA REBAUDIANA OF COMPOSITIONS WITH ENHANCED REBAUDIOSIDE-M CONTENT, USES OF SAID COMPOSITION AND NATURAL SWEETENER COMPOSITIONS WITH SAID COMPOSITION” (GLG LIFE TECH CORPORATION, priority 2014, published 2017).

Experiments:
[1] = Solubility in water and solvents; type: physicochemical
[2] = Sweetness relative to sucrose (general statements, Table 1)
Text: The physical and sensory properties are well studied generally only for Stevioside (STV) and Rebaudioside A. The sweetness potency of Stevioside is around 210 times higher than sucrose, Rebaudioside A is between 200 and 400 times, and Rebaudioside C is between 40 and 50 times and Dulcoside A around 30 times. Traditionally, Rebaudioside A is considered to have the most favorable sensory attributes of the four major steviol glycosides (see Table 1): […]

[3] = Heat and pH stability; type: physicochemical; settings: RM obtained in accordance with the invention
[4] = glycosides of wild type stevia; cited from earlier work
[5] = Example 8 sample test results of sweetener solutions (Table 2)
Text: Reb M 95, Reb C 85, Reb D 95, Reb A 97, Sucrose, New Blends RA97 and RM95, New Blends RA97, RM95 and RC85, New Blends RM95, RA97 and Sucrose, New Blends RM95, RA97 and Erythritol, Purified Water. [table]

## C=C1C[C@@]23CC[C@H]4[C@@](C)(CCC[C@@]4(C)C(=O)O[C@@H]4O[C@H](CO)[C@@H](O)[C@H](O[C@@H]5O[C@H](CO)[C@@H](O)[C@H](O)[C@H]5O)[C@H]4O[C@@H]4O[C@H](CO)[C@@H](O)[C@H](O)[C@H]4O)[C@@H]2CC[C@]1(O[C@@H]1O[C@H](CO)[C@@H](O)[C@H](O[C@@H]2O[C@H](CO)[C@@H](O)[C@H](O)[C@H]2O)[C@H]1O[C@@H]1O[C@H](CO)[C@@H](O)[C@H](O)[C@H]1O)C3 [RM, Rebaudioside M]
[1]
  solubility in acetone, benzene, chloroform, and ether: insoluble
  solubility in diluted solutions of methanol, ethanol, n-propanol, and isopropanol: soluble
[1]; increases with an increase in temperature
  solubility of RM in water: around 0.3%
[2]; compared to a 10% sucrose solution
  times sweeter than sugar: about 200 times
[2]; purified Reb M of the invention
  times sweetness of sucrose: more than 300 times
[3]
  heat and pH stability: heat and pH-stable

## C=C1C[C@@]23CC[C@H]4[C@@](C)(CCC[C@@]4(C)C(=O)O[C@@H]4O[C@H](CO)[C@@H](O)[C@H](O)[C@H]4O)[C@@H]2CC[C@]1(O[C@@H]1O[C@H](CO)[C@@H](O)[C@H](O[C@@H]2O[C@H](CO)[C@@H](O)[C@H](O)[C@H]2O)[C@H]1O[C@@H]1O[C@H](CO)[C@@H](O)[C@H](O)[C@H]1O)C3 [Rebaudioside A]
[4]
  sweetness, × of sugar: 350-450 × of sugar

## OC[C@H]1O[C@@](CO)(O[C@H]2O[C@H](CO)[C@@H](O)[C@H](O)[C@H]2O)[C@@H](O)[C@@H]1O [Sucrose]
[5]; amount per 100 ml in the solution that has sweetness 9° (9 g sucrose)
  Content/100 ml: 9 g
[5]; solution at the Content/100 ml of Table 2
  Sweetness of Solution: 9°

## Rebaudioside C
[4]
  sweetness, × of sugar: 40-50 × of sugar

## C=C1C[C@@]23CC[C@H]4[C@@](C)(CCC[C@@]4(C)C(=O)O[C@@H]4O[C@H](CO)[C@@H](O)[C@H](O)[C@H]4O)[C@@H]2CC[C@]1(O[C@@H]1O[C@H](CO)[C@@H](O)[C@H](O)[C@H]1O[C@@H]1O[C@H](CO)[C@@H](O)[C@H](O)[C@H]1O)C3 [Stevioside]
[4]
  sweetness, × of sugar: 250-300 × of sugar
